Test results as given in PubChem BioAssay AID1418 (Emory University Molecular Libraries Screening Center, 2008).
The source made the active and inactive calls. The rule behind the calls is not given here.

Target: Induced myeloid leukemia cell differentiation protein Mcl-1 (Homo sapiens) (UniProt Q07820)
Experiment: blockers of Bid binding to Mcl-1 – biochemical, TR-FRET, dose response (AID 1418)
Conditions: Mcl-1/Bid peptide binding, TR-FRET (europium/Dy647), 2 hr

Chain of Induced myeloid leukemia cell differentiation protein Mcl-1 (Homo sapiens) (Q07820 whole entry, looked up): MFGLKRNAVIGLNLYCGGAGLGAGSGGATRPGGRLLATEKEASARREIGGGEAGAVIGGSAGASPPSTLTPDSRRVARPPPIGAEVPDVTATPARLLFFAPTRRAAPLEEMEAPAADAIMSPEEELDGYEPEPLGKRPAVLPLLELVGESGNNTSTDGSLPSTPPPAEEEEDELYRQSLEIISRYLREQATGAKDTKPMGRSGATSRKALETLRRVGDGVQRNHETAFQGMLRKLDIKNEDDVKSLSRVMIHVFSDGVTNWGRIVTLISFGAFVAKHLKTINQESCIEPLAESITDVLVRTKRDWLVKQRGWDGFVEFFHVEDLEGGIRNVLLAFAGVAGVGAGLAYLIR

Q: For `CNc1nn(-c2cccc(Cl)c2)nc1N`, which IC50 is on record?
A: > 54 µM (inactive)

Q: Which IC50 does the source give for `CN1CCN(Cc2cccc(Oc3ccc(Cl)cc3)c2)CC1` here?
A: > 54 µM (inactive)

Q: `CCOc1cccc(CNCCO)c1OCc1ccc(Cl)cc1Cl` was tested. Which IC50 did it give?
A: > 54 µM (inactive)

Q: With `CN1/C(=C\C=C2C(=O)NC(=S)NC2=O)C(C)(C)c2ccccc21` as the compound, how does the IC50 read?
A: > 54 µM (inactive)

Q: For `CCCCN(Cc1cc2ccccc2[nH]c1=O)S(C)(=O)=O`, which IC50 is on record?
A: > 54 µM (inactive)

Q: `O=C(N/N=C/c1ccc(-c2ccc(Cl)c(C(=O)O)c2)o1)c1cc2c(ccc3ccccc32)o1` was tested. Which IC50 did it give?
A: 8.18 µM

Q: `COc1ccccc1NC(=O)c1cn(C)c(=O)c2cc(OC)c(OC)cc12` was tested. Which IC50 did it give?
A: > 54 µM (inactive)

Q: Which IC50 does the source give for `O=C(COc1cccc2c1CCN(Cc1ccc(Br)cc1)C2=O)NCc1ccco1` here?
A: > 54 µM (inactive)

Q: How did the IC50 turn out when `CS(=O)(=O)NCc1ccc(C(=O)NCCOc2ccccc2)cc1` was run?
A: > 54 µM (inactive)

Q: For `O=C(/C=C/c1cccc([N+](=O)[O-])c1)Nc1ccc(NC(=O)c2cccs2)cc1`, which IC50 is on record?
A: 10.6 µM

Q: `CN(CCOC(=O)C1c2ccccc2Oc2ccccc21)C(C)(C)C` was tested. Which IC50 did it give?
A: > 54 µM (inactive)

Q: Which IC50 does the source give for `Cc1ccnc(N/C=C(\C#N)c2nc(-c3cccc(Br)c3)cs2)c1` here?
A: 0.79 µM

Q: For `CC(NC(=O)Cn1cnc2c1c(=O)n(C)c(=O)n2C)c1ccccc1` (stereo unspecified), which IC50 is on record?
A: > 54 µM (inactive)

Q: For `COc1cccc(Oc2c(C)oc3c(CN4CCCC4)c(O)ccc3c2=O)c1`, which IC50 is on record?
A: > 54 µM (inactive)

Q: For `CC1(C)Cc2cccc(OCC(=O)OCC(=O)Nc3cccc(S(N)(=O)=O)c3)c2O1`, which IC50 is on record?
A: > 54 µM (inactive)

Q: How did the IC50 turn out when `COc1cccc(OC)c1C(=O)Nc1ccccc1C(=O)N1CCOCC1` was run?
A: > 54 µM (inactive)

Q: For `O=C(NC(=S)NCc1cccnc1)c1ccc([N+](=O)[O-])cc1`, which IC50 is on record?
A: > 54 µM (inactive)

Q: With `O=C(Oc1cccc(N2C(=O)C3C4c5ccccc5C(c5ccccc54)C3C2=O)c1)c1ccco1` (stereo unspecified) as the compound, how does the IC50 read?
A: > 54 µM (inactive)

Q: Which IC50 does the source give for `CN(CCO)S(=O)(=O)c1ccc2c(c1)C(=NO)c1cc(S(=O)(=O)N(C)CCO)ccc1-2` here?
A: > 54 µM (inactive)

Q: With `Cc1cccc(NC(=O)C2C(C(=O)O)C3C=CC2C32CC2)c1C` (stereo unspecified) as the compound, how does the IC50 read?
A: > 54 µM (inactive)

Q: With `Fc1cc2nc(-c3ccncc3)[nH]c2cc1F` as the compound, how does the IC50 read?
A: > 54 µM (inactive)

Q: How did the IC50 turn out when `CC(C)(C)CC(=O)O/N=C(\N)c1ccncc1` was run?
A: > 54 µM (inactive)

Q: With `Cc1cccc(NC(=O)C2CCN(c3nc(C)cc(C)n3)CC2)c1` as the compound, how does the IC50 read?
A: > 54 µM (inactive)

Q: How did the IC50 turn out when `COc1ccc(C2CC(c3ccccc3)Nc3nc(N)nn32)cc1` (stereo unspecified) was run?
A: > 54 µM (inactive)

Q: Which IC50 does the source give for `CCCN(CCC)C(C(=O)Nc1cccc(OC)c1)c1ccccc1` (stereo unspecified) here?
A: > 54 µM (inactive)

Q: Which IC50 does the source give for `CC(NCc1ccc2c(c1)OCO2)C(=O)NC1CCCc2ccccc21` (stereo unspecified) here?
A: > 54 µM (inactive)

Q: For `CCNc1ccc2noc3c2c1C(=O)c1ccccc1-3`, which IC50 is on record?
A: 14.7 µM

Q: With `COC(=O)c1ccc(COC(=O)c2ccc(CS(=O)(=O)c3ccc(C)cc3)cc2)cc1` as the compound, how does the IC50 read?
A: 1.3 µM

Q: For `O=C(CCS(=O)(=O)c1ccc(Br)s1)NC1CCCCCC1`, which IC50 is on record?
A: > 54 µM (inactive)

Q: For `c1ccc2nc3ccccc3nc2c1`, which IC50 is on record?
A: > 54 µM (inactive)

Q: How did the IC50 turn out when `N=C1/C(=C\c2ccc(-c3cccc(C(=O)O)c3)o2)C(=O)N=C2SC=C(c3ccccc3)N12` was run?
A: 4.64 µM

Q: With `COC(=O)c1cccc(NC(=S)Nc2cccc(Cl)c2Cl)c1` as the compound, how does the IC50 read?
A: > 54 µM (inactive)

Q: How did the IC50 turn out when `O=C1NN(c2ccc(Cl)c(Cl)c2)C(=O)/C1=C/c1cccc(OC(=O)c2cccs2)c1` was run?
A: 6.57 µM

Q: Which IC50 does the source give for `Cc1cc(N)n(-c2ccc3ccccc3c2)n1` here?
A: > 54 µM (inactive)

Q: `C=CCNCCCOc1ccc(Cl)cc1Br` was tested. Which IC50 did it give?
A: > 54 µM (inactive)

Q: Which IC50 does the source give for `COc1cc2c(cc1OC)-c1cc(NC3CCCCCCC3)nc(=O)n1CC2` here?
A: > 54 µM (inactive)

Q: Which IC50 does the source give for `CCOc1c(C(N)=O)c(-c2ccccc2)c2c(=O)[nH]c3ccccc3n12` here?
A: > 54 µM (inactive)

Q: How did the IC50 turn out when `CCCN(CCC)CCNC(=O)C1CC(=O)N(c2ccc(OC)cc2)C1c1ccc(OC)cc1` (stereo unspecified) was run?
A: > 54 µM (inactive)

Q: Which IC50 does the source give for `COc1cccc(/C=N/NC(=O)c2cc3cc([N+](=O)[O-])ccc3s2)c1O` here?
A: 1.58 µM

Q: Which IC50 does the source give for `O=[N+]([O-])c1ccc2c(c1)ncn2-c1ccccc1` here?
A: > 54 µM (inactive)

Q: Which IC50 does the source give for `O=C(NCCc1csc(-c2cccnc2)n1)c1cccs1` here?
A: > 54 µM (inactive)
